Measured values taken from patent publication US12410157B2, “Compound useful as toll-like receptor 7 activation inhibitor” (TOYAMA PREFECTURAL UNIVERSITY, priority 2020, dated 2025).

How the values were obtained:
[1] = target: T1, mouse TLR7 (Mus musculus, UniProt P58681); test: Inhibition of TLR7 activation in mouse TLR7-expressing NF-κB-GFP reporter Ba/F3 cells; assay type: cell-based; conditions: Example 5, Table 5; method of Example 2; read-out: IC50
T1 construct: expressed in transfected cells; host or cells: Ba/F3 cells (provided by Prof. Kensuke Miyake, University of Tokyo)
T1 sequence (P58681 27-1050): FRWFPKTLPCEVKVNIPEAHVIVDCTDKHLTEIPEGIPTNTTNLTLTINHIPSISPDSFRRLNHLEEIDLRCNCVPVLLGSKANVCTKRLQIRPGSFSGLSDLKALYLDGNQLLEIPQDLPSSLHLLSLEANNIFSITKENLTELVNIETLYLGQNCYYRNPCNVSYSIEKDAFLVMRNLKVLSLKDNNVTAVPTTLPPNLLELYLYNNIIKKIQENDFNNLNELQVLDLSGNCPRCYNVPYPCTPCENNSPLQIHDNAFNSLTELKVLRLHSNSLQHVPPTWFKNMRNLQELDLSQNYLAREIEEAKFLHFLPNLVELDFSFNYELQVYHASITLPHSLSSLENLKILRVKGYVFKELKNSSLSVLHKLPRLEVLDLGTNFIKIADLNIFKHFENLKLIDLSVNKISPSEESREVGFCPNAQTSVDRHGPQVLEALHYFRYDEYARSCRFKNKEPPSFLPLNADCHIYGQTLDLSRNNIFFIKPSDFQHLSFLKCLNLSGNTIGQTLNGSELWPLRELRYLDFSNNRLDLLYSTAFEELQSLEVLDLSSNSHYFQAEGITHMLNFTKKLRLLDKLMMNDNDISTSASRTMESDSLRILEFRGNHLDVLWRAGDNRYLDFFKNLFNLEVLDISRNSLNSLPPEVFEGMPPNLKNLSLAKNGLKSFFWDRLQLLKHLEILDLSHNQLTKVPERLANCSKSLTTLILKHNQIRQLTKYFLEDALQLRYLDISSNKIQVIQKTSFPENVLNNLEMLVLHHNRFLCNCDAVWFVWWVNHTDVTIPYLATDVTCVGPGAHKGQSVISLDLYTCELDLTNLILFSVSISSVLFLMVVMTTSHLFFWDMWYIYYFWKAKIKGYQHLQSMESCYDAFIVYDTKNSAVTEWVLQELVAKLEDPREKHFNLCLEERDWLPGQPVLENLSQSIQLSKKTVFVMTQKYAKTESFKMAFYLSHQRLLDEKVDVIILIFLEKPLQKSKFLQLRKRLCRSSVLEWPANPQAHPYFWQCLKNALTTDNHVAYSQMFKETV
Source text: Mouse TLR7-expressing reporter cells (Ba/F3 cells) were used to evaluate inhibition of TLR7 activation in each derivative and CB-7. These cells were provided by Professor Kensuke Miyake (Department of Infection Genetics, Institute of Medical Science, University of Tokyo). These cells have been transfected with a reporter gene that connects GFP gene downstream of the promoter region of NF-κB. Therefore, the expression of GFP is enhanced by the addition of a ligand for TLR7 expressed by the cells. The fluorescence intensity of GFP was attenuated by the addition of each derivative, and the inhibition of TLR7 activation by each derivative was evaluated as an indicator.
Loxoribine (Alexis Biochemicals) was used as the ligand for mouse TLR7. Gardiquimod (Invivogen) was used as the ligand for human TLR7.
Ba/F3 cells cultured in RPMI 1640 medium containing 10% (v/v) fetal calf serum (FCS), 50 U/mL penicillin, 50 μg/mL streptomycin, 2 mM L-glutamine, […] 2-mercaptoethanol, 1 ng/mL interleukin-3 were aliquoted into 96-well plates so that the number of cells per well was 1.0×10^5 cells/100 μL. 50 μL of each derivative or CB-7, prepared to final concentrations of 1, 5, 10, 25, 50, and 100 µM, was added to each well. 96-well plates were incubated at 37° C. for 30 minutes in the presence of 5% CO2. Next, 250 μg/mL Roxoribin was added to each well and incubated for 18 hours. At the end of incubation, cells were washed with PBS (FACS buffer) containing 2.5% (v/v) FCS and suspended in 200 μL of FACS buffer containing 25 μg/mL […] for each cell. GFP fluorescence intensities of the cells were analyzed by flow cytometry. Flow cytometry measurement was performed on a FACSCanto™ II (Becton Dickinson) and data were analyzed with FlowJo software (Tree Star). The MFI (%) upon stimulation with roxoribin in the presence of […] derivatives or CB-7 was calculated using the MFI upon stimulation with roxoribin alone as 100%, and then IC50 (chemical compound concentration that inhibits activity by 50%) was calculated by logistic regression analysis.
The evaluation of the TLR7 activation inhibition by B2-24-4-5A·HCOOH was performed by the method described in Example 2. CB-7 and B2-24-4·HCl were used as controls.

[2] = Plasma concentration in mouse model of systemic lupus erythematosus after oral administration; assay type: in vivo; conditions: NZBWF1 mice, 5 mg/kg orally
Description: Plasma concentrations of B2-24-4-5A·HCOOH were determined after oral administration of B2-24-4-5A·HCOOH in a mouse model of systemic lupus erythematosus (NZBWF1, 20 weeks old, female). 5 mg/kg of B2-24-4-5A·HCOOH was administered orally to NZBWF1 mice. After 0.5, 1, 2, 4, 8, 16, or 24 hours, blood was collected from NZBWF1 mice to prepare plasma. The concentration of B2-24-4-5A·HCOOH in the plasma was determined by LC/MS/MS.

Question: What does the source list for C=C(C)[C@@H]1CC[C@]2(COC(=O)C2)C[C@H]1c1ccc(CN2CCNCC2)cc1 [B2-24-4-5A·HCOOH]?
Answer: IC50 [1]: 167 nM; Plasma level after 8 hours [2]: near-bottom level; concentration at 0.5 h ([2]; female, mouse, plasma, po, LC/MS/MS): 88.1 ng/mL
